Reference: patent US20240300991A1, “NUCLEOSIDE DERIVATIVE HAVING MULTI-TARGET KINASE INHIBITORY ACTIVITY AND PHARMACEUTICAL COMPOSITION FOR PREVENTING AND TREATING CANCER COMPRISING SAME” (FUTURE MEDICINE CO., LTD., priority 2021, published 2024)

Experiments:
CSNK1D = target: T1, CSNK1D (Homo sapiens, UniProt P48730); test: Kinase inhibition test (DNA-tagged kinase, affinity resin, qPCR readout); format: binding; set-up: key: (−) indicates no effect; (+) indicates weak inhibitory activity; (++) indicates a moderate level of inhibitory activity; (+++) indicates strong inhibitory activity; conditions: 1 μM of compound
T1 construct: made in house
Source text: (§1) In order to examine the inhibitory activity of the nucleoside derivatives of the present invention synthesized in the Preparation Examples against kinases, the nucleoside derivatives were confirmed to have inhibitory activity against neurotrophic tyrosine kinase receptor type 1 or tropomyosin receptor kinase A (NTRK1), casein kinase 1 isoform delta (CSNK1D), dual specificity tyrosine-phosphorylation-regulated kinase 1A (DYRK1A), dual specificity tyrosine-phosphorylation-regulated kinase 1B (DYRK1B) and receptor-type tyrosine-protein kinase or fms like tyrosine kinase 3 or cluster of differentiation antigen 135 (CD135) or fetal liver kinase-2 (Flk2) (FLT3).
(§2) The inhibition measurement method is as follows. Most of the kinases were produced by culturing a phage in which BL21 E. coli was tagged with a kinase at 32° C. until lysis, followed by centrifugation and filtration. Further, the kinases were produced using HEK-293 cells. Thereafter, the kinases were DNA tagged for qPCR. After an affinity resin was prepared by stirring a biotin-tagged substrate onto streptavidin-coated beads for 30 minutes, a non-specifically bound substrate was washed with a buffer (SeaBlock (Pierce), 1% BSA, 0.05% Tween 20, 1 mM DTT).
(§3) For a kinase test, the kinase, the substrate, the affinity resin, and a test material dissolved in dimethyl sulfoxide were stirred together in a buffer (20% SeaBlock, 0.17×PBS, 0.05% Tween20, and 6 mM DTT) at room temperature for 1 hour. Thereafter, an affinity substrate was washed with a buffer (1×PBS, 0.05% Tween20), and then suspended in an elution buffer (1×PBS, 0.05% Tween20, 0.5 μM non-biotinylated affinity ligand), and the resulting suspension was stirred. The concentration of the kinase was quantified by qPCR.

DYRK1A = target: T2, DYRK1A (Homo sapiens, UniProt Q13627); test: as above; format: binding; set-up: key: (−) indicates no effect; (+) indicates weak inhibitory activity; (++) indicates a moderate level of inhibitory activity; (+++) indicates strong inhibitory activity; conditions: 1 μM of compound
T2 construct: made in house
Source text: as §1, §2, §3

DYRK1B = target: T3, DYRK1B (Homo sapiens, UniProt Q9Y463); test: as above; format: binding; set-up: key: (−) indicates no effect; (+) indicates weak inhibitory activity; (++) indicates a moderate level of inhibitory activity; (+++) indicates strong inhibitory activity; conditions: 1 μM of compound
T3 construct: made in house
Source text: as §1, §2, §3

NTRK1 = target: T4, NTRK1 (Homo sapiens, UniProt P04629); test: as above; format: binding; set-up: key: (−) indicates no effect; (+) indicates weak inhibitory activity; (++) indicates a moderate level of inhibitory activity; (+++) indicates strong inhibitory activity; conditions: 1 μM of compound
T4 construct: made in house
Source text: as §1, §2, §3

A549 (lung cancer cells) = test: Inhibitory activity against cancer cells (sulforhodamine B staining); format: cell-based; conditions: 3 days, SRB staining
Procedure: (§4) In order to examine the anticancer activity of the nucleoside derivatives of the present invention synthesized in the Preparation Examples, the ICso of each of A549 (lung cancer cells), HCT116 (colon cancer cells), MDA-MB-231 (breast cancer cells), SK-Hep-1 (liver cancer cells), SNU638 (stomach cancer cells) and PC-3 (prostate cancer cells) against cancer cells was measured.
(§5) The test method is as follows. Cells were allowed to stand for 1 day and set as a control on day 0. Further, after a test material was added to the cells, the cells were allowed to stand for 3 days. Thereafter, the cells were stained with 1% acetic acid and 0.4% sulforhodamine B. The stained cells were dried and dissolved in 10 mM Tris (pH 10.0). Absorbance was measured at 515 nm, and the degree of cell division was determined using the following equation. After calculation as Cell division (%)=(average absorbancetest material−average absorbanceday 0)/(average absorbance control-average absorbanceday 0)×100, the degree of cell division was calculated through a non-linear regression analysis using Table Curve 2D v5.01 (Systat Software Inc., San Jose, CA, USA).

[1] = test system: HCT116 (colon cancer cells); test: as above; format: cell-based; conditions: 3 days, SRB staining
Procedure: as §4, §5

[2] = test system: MDA-MB-231 (breast cancer cells); test: as above; format: cell-based; conditions: 3 days, SRB staining
Procedure: as §4, §5

[3] = test system: PC-3 (prostate cancer cells); test: as above; format: cell-based; conditions: 3 days, SRB staining
Procedure: as §4, §5

[4] = test system: SK-Hep-1 (liver cancer cells); test: as above; format: cell-based; conditions: 3 days, SRB staining
Procedure: as §4, §5

[5] = test system: SNU638 (stomach cancer cells); test: as above; format: cell-based; conditions: 3 days, SRB staining
Procedure: as §4, §5

T4 sequence (P04629 33-796): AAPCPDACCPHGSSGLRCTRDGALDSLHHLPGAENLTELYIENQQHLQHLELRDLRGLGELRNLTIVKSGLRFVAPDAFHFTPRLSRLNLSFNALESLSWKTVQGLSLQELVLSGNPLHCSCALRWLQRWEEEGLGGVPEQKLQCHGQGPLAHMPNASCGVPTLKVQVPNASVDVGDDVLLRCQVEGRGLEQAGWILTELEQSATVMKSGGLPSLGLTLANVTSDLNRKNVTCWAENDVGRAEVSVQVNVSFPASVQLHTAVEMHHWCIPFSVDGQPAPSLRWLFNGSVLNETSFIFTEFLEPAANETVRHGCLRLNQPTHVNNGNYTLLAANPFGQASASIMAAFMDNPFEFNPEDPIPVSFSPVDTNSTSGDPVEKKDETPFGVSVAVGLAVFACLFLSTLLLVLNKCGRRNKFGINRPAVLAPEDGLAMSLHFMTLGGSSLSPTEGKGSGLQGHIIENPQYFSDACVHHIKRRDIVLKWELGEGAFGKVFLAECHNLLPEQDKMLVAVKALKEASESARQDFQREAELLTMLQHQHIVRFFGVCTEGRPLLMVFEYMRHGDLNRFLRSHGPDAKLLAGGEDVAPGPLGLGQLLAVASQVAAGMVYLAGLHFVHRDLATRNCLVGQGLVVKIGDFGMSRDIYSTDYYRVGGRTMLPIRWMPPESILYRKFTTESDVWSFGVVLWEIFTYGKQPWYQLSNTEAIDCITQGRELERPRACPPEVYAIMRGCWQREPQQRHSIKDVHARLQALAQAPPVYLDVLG
T3 sequence (Q9Y463 whole entry): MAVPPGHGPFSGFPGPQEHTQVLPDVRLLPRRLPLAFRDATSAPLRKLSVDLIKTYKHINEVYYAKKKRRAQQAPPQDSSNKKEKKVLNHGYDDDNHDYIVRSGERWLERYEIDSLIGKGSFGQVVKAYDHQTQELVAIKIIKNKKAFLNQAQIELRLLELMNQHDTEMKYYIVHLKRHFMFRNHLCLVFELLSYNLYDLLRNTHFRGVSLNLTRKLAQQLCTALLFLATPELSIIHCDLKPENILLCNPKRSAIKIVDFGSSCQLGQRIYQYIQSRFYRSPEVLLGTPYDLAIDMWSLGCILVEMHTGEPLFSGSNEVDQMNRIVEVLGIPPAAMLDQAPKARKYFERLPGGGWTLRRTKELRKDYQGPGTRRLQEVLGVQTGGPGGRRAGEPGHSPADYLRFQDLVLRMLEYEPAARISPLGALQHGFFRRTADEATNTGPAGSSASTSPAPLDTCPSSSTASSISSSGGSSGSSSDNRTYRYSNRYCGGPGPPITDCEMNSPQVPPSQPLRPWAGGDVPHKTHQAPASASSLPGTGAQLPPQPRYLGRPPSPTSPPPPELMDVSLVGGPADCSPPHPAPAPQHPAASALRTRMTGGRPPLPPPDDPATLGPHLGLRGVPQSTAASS
T1 sequence (P48730 whole entry): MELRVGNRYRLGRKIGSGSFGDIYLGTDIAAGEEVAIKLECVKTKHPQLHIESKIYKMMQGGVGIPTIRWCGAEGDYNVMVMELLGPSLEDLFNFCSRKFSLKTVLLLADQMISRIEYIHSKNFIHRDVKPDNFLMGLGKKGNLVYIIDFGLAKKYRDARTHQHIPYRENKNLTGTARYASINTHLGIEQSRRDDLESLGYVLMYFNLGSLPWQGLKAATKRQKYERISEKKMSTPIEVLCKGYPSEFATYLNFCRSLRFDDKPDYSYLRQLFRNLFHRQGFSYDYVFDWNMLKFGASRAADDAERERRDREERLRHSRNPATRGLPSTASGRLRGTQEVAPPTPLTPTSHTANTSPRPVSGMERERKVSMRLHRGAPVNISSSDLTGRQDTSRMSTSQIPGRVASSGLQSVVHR

Row | SMILES | CSNK1D inhibitory activity (CSNK1D) | DYRK1A inhibitory activity (DYRK1A) | DYRK1B inhibitory activity (DYRK1B) | NTRK1 inhibitory activity (NTRK1) | IC50 (A549 (lung cancer cells)) [µM] | IC50 [1] [µM] | IC50 [2] [µM] | IC50 [3] [µM] | IC50 [4] [µM] | IC50 [5] [µM]
1 | C#Cc1cn([C@@H]2S[C@H](COC(=O)c3ccccc3)[C@@H](O)[C@H]2O)c2ncnc(N)c12 [Compound 7b] | ++ | ++ | ++ | +++ | 3.19 | 2.86 | 2.13 | 2.05 | 0.57 | 1.31
2 | C#Cc1cn([C@@H]2S[C@H](COC(=O)c3ccc(Cl)cc3)[C@@H](O)[C@H]2O)c2ncnc(N)c12 [Compound 7c] | ++ | ++ | ++ | ++ | 0.27 | 0.23 | 0.29 | 0.23 | 0.18 | 0.13
3 | C#Cc1cn([C@@H]2S[C@H](COC(=O)c3ccc(OC)cc3)[C@@H](O)[C@H]2O)c2ncnc(N)c12 [Compound 7d] | ++ | ++ | ++ | ++ | 0.35 | 0.3 | 0.36 | 0.33 | 0.25 | 0.19
4 | C#Cc1cn([C@@H]2S[C@H](COC(=O)c3c(C)cccc3C)[C@@H](O)[C@H]2O)c2ncnc(N)c12 [Compound 7e] | ++ | ++ | ++ | +++ | 6.47 | 6.42 | 4.68 | 5.59 | 4.39 | 4.84
5 | C#Cc1cn([C@@H]2S[C@H](COC(=O)c3ccncc3)[C@@H](O)[C@H]2O)c2ncnc(N)c12 [Compound 7f] | ++ | ++ | ++ | +++ | 0.07 | 0.038 | 0.074 | 0.078 | 0.05 | 0.048
6 | N#Cc1cn([C@@H]2S[C@H](COC(=O)c3ccccc3)[C@@H](O)[C@H]2O)c2ncnc(N)c12 [Compound 7g] | +++ | +++ | +++ | ++ | 2.58 | 3.6 | 1.56 | 2.96 | 5.62 | 3.78
7 | NC(=O)c1cn([C@@H]2S[C@H](COC(=O)c3ccccc3)[C@@H](O)[C@H]2O)c2ncnc(N)c12 [Compound 7h] | +++ | +++ | +++ | ++ | 4.78 | 1.61 | 6.79 | 3.56 | 5.09 | 5.23
8 | C#Cc1cn([C@@H]2S[C@H](CNC(=O)c3ccc(OC)cc3)[C@@H](O)[C@H]2O)c2ncnc(N)c12 [Compound 8c] | ++ | +++ | ++ | +++ | 10.1 | 13.7 | 10.4 | 14.8 | 12.2 | 12.2
9 | N#Cc1cn([C@@H]2S[C@H](CNC(=O)c3ccccc3)[C@@H](O)[C@H]2O)c2ncnc(N)c12 [Compound 8d] | ++ | ++ | +++ | +++ | 11.2 | 8.9 | 9.34 | 6.67 | 13.8 | 23.7
10 | NC(=O)c1cn([C@@H]2S[C@H](CNC(=O)c3ccccc3)[C@@H](O)[C@H]2O)c2ncnc(N)c12 [Compound 8e] | ++ | ++ | ++ | ++ | 45.2 | 12.5 | 6.78 | 4.65 | 10 | 9.34
11 | N#Cc1cn([C@@H]2S[C@H](CN=[N+]=[N-])[C@@H](O)[C@H]2O)c2ncnc(N)c12 [Compound 9b] | +++ | +++ | +++ | +++ | 0.23 | 0.56 | 0.38 | 0.45 | 1.05 | 0.12
12 | [N-]=[N+]=NC[C@H]1S[C@@H](n2cc(C(N)=O)c3c(N)ncnc32)[C@H](O)[C@@H]1O [Compound 9c] | +++ | +++ | +++ | +++ | 0.24 | 0.86 | 0.26 | 0.36 | 0.78 | 0.35
13 | N#Cc1cn([C@@H]2S[C@H](CN)[C@@H](O)[C@H]2O)c2ncnc(N)c12 [Compound 10b] | ++ | +++ | +++ | ++ | 3.83 | 2.78 | 4.75 | 2.45 | 1.63 | 1.47
